Drawing on patent US7456152B2, “Peptide inhibitors of thrombin as potent anticoagulants” (priority 2004, dated 2008), this text covers IC50 and Ki for 13 molecules.

Where “and” joins values, the source holds several entries; their conditions need not be identical. Identical values can stand only once. Ends that are not written are not given here.

Test [1] deals with T1, human α-thrombin (Homo sapiens, UniProt P00734).
T1 construct: Bovine and human α-thrombins were supplied by Haematologic Technologies Inc (VT, USA); cleaved off efficiently by thrombin to generate the free N-terminus of the A-chain of human thrombin; purchased Haematologic Technologies Inc (VT, USA)
Briefly: Clotting assay: fibrinogen clotting by human thrombin, concentration doubling the clotting time (DCT) = IC50. Type of test: biochemical. The protocol:
The clotting assays were carried out by use of the protocols described previously (DiMaio, J., Gibbs, B., Munn, D., Lefebvre, J., Ni, F., and Konishi, Y. (1990) J. Biol. Chem. 265, 21698-21703; and Witting, J. I., Bourdon, P., Brezniak, D. V., Maraganore, J. M., and Fenton, J. W. (1992) Biochem. J. 283 (Pt 3), 737-743) The assay employs bovine plasma fibrinogen dissolved at 0.1% in 50 mM Tris-Cl, 100 mM NaCl, 0.1% PEG-8000 at pH 7.6 (i.e. the clotting buffer). Each assay mixture contained a certain concentration of the peptide, and the reaction was started by the addition of human thrombin to a final concentration of 0.1 NIH unit/ml. Optical absorbance of the assay mixtures was measured at 420 nm and 37° C. using the Spectramax™ plate reader. The onset clotting time was determined as an intersection of the baseline and the initial slope of the O.D. change as a result of fibrin clot formation. The concentration of a peptide needed to double the clotting time (DCT) was defined as IC50. Peptide concentrations were determined by comparing the O.D.280 values of peptide stock solutions in the clotting buffer (vide supra) with the predicted extinction coefficient for each peptide (Gill, S. C. and von Hippel, P. H. (1989) Anal. Biochem. 182, 319-326).
The peptide concentration for doubling the clotting time (DCT) was defined as the IC50 value.

Test [2] has as its target T1, human α-thrombin. Briefly: Inhibition of the amidolytic activity of thrombin (Tos-Gly-Pro-Arg-p-nitroanilide hydrolysis). The conditions noted are these: Amidolytic assay, 25° C. (Ki, nM), Tos-Gly-Pro-Arg-pNA, 25° C. Type of test: biochemical. The procedure:
Kinetics of thrombin-catalyzed hydrolysis of the chromogenic substrate Tos-Gly-Pro-Arg-p-nitroanilide were followed by absorbance at 405 nm on a Spectramax plate reader thermostated at either 25° C. or 37° C. according to the method of Maragnore et al (supra). The concentrations of Tos-Gly-Pro-Arg-p-nitroanilide ranged from 2 to 400 μM. Initial rates were calculated under conditions of <15% hydrolysis of the total substrate. The KM and Vmax values were calculated accordingly and kcat values were determined by dividing Vmax by the enzyme (thrombin) concentration. The inhibition assays were performed in the clotting buffer with a certain fixed concentration of α-thrombin (˜0.3 nM) such that linear progress curves were achieved within at least 15 min in the absence of the inhibition. The total volume of the solution was fixed at 200 μl. Reactions were initiated by addition of the chromogenic substrate to the wells containing thrombin and a certain concentration of the peptide inhibitors premixed for less than 2 min. Alternatively, the substrate was first mixed with the peptide inhibitor and the total volume was adjusted to 120 μL using the clotting buffer. Eighty microliters of human α-thrombin in the clotting buffer (˜0.3 nM final concentration) was added to initiate the reaction. The concentration of the peptides ranged from 0.5 nM to 10 μM. Kinetics data from initial rate experiments were used to construct Lineweaver-Burke plot; i.e. the relationship of (substrate concentration)^−1 versus (initial velocity)^−1 which. were analysed by linear regression with MicroCal Origin 4.1 program (MicroCal, MD) or using the GraphPad Prism software. The Ki values of the inhibitors were determined using the equation: Ki=[I]/{(SL0/SL1)−1}, where
[I] is the inhibitor concentration,
SL0 is the slope of the reaction in the absence of inhibitors, and
SL1 is the slope of the reaction in the presence of the inhibitor.
Alternatively, Dixon plots of inverse velocity versus the inhibitor concentrations were generated with the Sigmaplot™ software. Every Dixon plot contained an array of data corresponding to different substrate concentrations and the Ki values were determined from the intersections. Following Peptide Cleavage by HPLC

With `CC[C@H](C)[C@H](NC(=O)[C@H](CCC(=O)O)NC(=O)[C@H](CCC(=O)O)NC(=O)[C@H](Cc1ccccc1)NC(=O)[C@H](CC(=O)O)NC(=O)CNC(=O)[C@H](CC(=O)O)NC(=O)[C@H](CC(N)=O)NC(=O)[C@H](Cc1c[nH]cn1)NC(=O)[C@H](CC(=O)O)NC(=O)[C@H](CCC(N)=O)NC(=O)[C@@H]1CCCN1C(=O)[C@H](CCCNC(=N)N)NC(=O)[C@@H]1CCCN1C(=O)[C@H](CC(=O)O)NC(=O)[C@@H](N)Cc1ccccc1)C(=O)N1CCC[C@H]1C(=O)N[C@@H](CCC(=O)O)C(=O)N[C@@H](CCC(=O)O)C(=O)N[C@@H](Cc1ccc(O)cc1)C(=O)N[C@@H](CC(C)C)C(=O)N[C@@H](CCC(N)=O)C(=O)O` [FD22-D], at human α-thrombin [1], half-maximal inhibition (IC50) was put at 0.053 ± 0.002 µM. For `CC[C@H](C)[C@H](NC(=O)[C@H](CCC(=O)O)NC(=O)[C@H](CCC(=O)O)NC(=O)[C@H](Cc1ccccc1)NC(=O)[C@H](CC(=O)O)NC(=O)CNC(=O)[C@H](CC(=O)O)NC(=O)[C@H](CC(N)=O)NC(=O)[C@H](Cc1c[nH]cn1)NC(=O)[C@H](CCCNC(=N)N)NC(=O)[C@H](CCC(N)=O)NC(=O)[C@@H]1CCCN1C(=O)[C@H](CCCNC(=N)N)NC(=O)[C@@H]1CCCN1C(=O)[C@H](CC(=O)O)NC(=O)[C@@H](N)Cc1ccccc1)C(=O)N1CCC[C@H]1C(=O)N[C@@H](CCC(=O)O)C(=O)N[C@@H](CCC(=O)O)C(=O)N[C@@H](Cc1ccc(O)cc1)C(=O)N[C@@H](CC(C)C)C(=O)N[C@@H](CCC(N)=O)C(=O)O` [FD22-R], the IC50 (usually the concentration that gives 50% inhibition) at human α-thrombin [1] is ~0.032 µM and 0.032 µM. The inhibition constant (Ki) – broadly, a measure of affinity in units of concentration, obtained from inhibition or displacement – on human α-thrombin [2] worked out at 45 ± 6 nM. For `CC[C@H](C)[C@H](NC(=O)[C@H](CCC(=O)O)NC(=O)[C@H](CCC(=O)O)NC(=O)[C@H](Cc1ccccc1)NC(=O)[C@H](CC(=O)O)NC(=O)CNC(=O)[C@H](CC(=O)O)NC(=O)[C@H](CC(N)=O)NC(=O)[C@H](Cc1c[nH]cn1)NC(=O)[C@H](CO)NC(=O)[C@H](CCC(N)=O)NC(=O)[C@@H]1CCCN1C(=O)[C@H](CCCNC(=N)N)NC(=O)[C@@H]1CCCN1C(=O)[C@H](CC(=O)O)NC(=O)[C@@H](N)Cc1ccccc1)C(=O)N1CCC[C@H]1C(=O)N[C@@H](CCC(=O)O)C(=O)N[C@@H](CCC(=O)O)C(=O)N[C@@H](Cc1ccc(O)cc1)C(=O)N[C@@H](CC(C)C)C(=O)N[C@@H](CCC(N)=O)C(=O)O` [FD22^(a)], the IC50 on human α-thrombin [1] was found to be 0.05 ± 0.015 µM. Besides, the inhibitory constant (Ki) on human α-thrombin [2] came to 55 ± 10 nM. `CC[C@H](C)[C@H](NC(=O)[C@H](CCC(=O)O)NC(=O)[C@H](CCC(=O)O)NC(=O)[C@H](Cc1ccccc1)NC(=O)[C@H](CC(=O)O)NC(=O)CNC(=O)[C@H](CC(=O)O)NC(=O)[C@H](CC(N)=O)NC(=O)[C@H](Cc1c[nH]cn1)NC(=O)[C@H](CC(=O)O)NC(=O)[C@H](CCC(N)=O)NC(=O)[C@@H]1CCCN1C(=O)[C@H](CCCNC(=N)N)NC(=O)[C@@H]1CCCN1C(=O)[C@H](CCC(=O)O)NC(=O)[C@@H](N)Cc1ccccc1)C(=O)N1CCC[C@H]1C(=O)N[C@@H](CCC(=O)O)C(=O)N[C@@H](CCC(=O)O)C(=O)N[C@@H](Cc1ccc(O)cc1)C(=O)N[C@@H](CC(C)C)C(=O)N[C@@H](CCC(N)=O)C(=O)O` [FE22-D] had a 50% inhibitory concentration (IC50) on human α-thrombin [1] of over 0.125 µM.

On human α-thrombin [1], `CC[C@H](C)[C@H](NC(=O)[C@H](CCC(=O)O)NC(=O)[C@H](CCC(=O)O)NC(=O)[C@H](Cc1ccccc1)NC(=O)[C@H](CC(=O)O)NC(=O)CNC(=O)[C@H](CC(=O)O)NC(=O)[C@H](CC(N)=O)NC(=O)[C@H](Cc1c[nH]cn1)NC(=O)[C@H](CO)NC(=O)[C@H](CCC(N)=O)NC(=O)[C@@H]1CCCN1C(=O)[C@H](CCCNC(=N)N)NC(=O)[C@@H]1CCCN1C(=O)[C@H](CCC(=O)O)NC(=O)[C@@H](N)Cc1ccccc1)C(=O)N1CCC[C@H]1C(=O)N[C@@H](CCC(=O)O)C(=O)N[C@@H](CCC(=O)O)C(=O)N[C@@H](Cc1ccc(O)cc1)C(=O)N[C@@H](CC(C)C)C(=O)N[C@@H](CCC(N)=O)C(=O)O` [FE22] had a 50% inhibitory concentration (IC50) of 0.08 µM.

Molecule `CC[C@H](C)[C@H](NC(=O)[C@H](CCC(=O)O)NC(=O)[C@H](CCC(=O)O)NC(=O)[C@H](Cc1ccccc1)NC(=O)[C@H](CC(=O)O)NC(=O)CNC(=O)[C@H](CC(=O)O)NC(=O)[C@H](CC(N)=O)NC(=O)[C@H](Cc1c[nH]cn1)NC(=O)[C@H](CO)NC(=O)[C@H](CCC(N)=O)NC(=O)[C@@H]1CCCN1C(=O)[C@H](CCCNC(=N)N)NC(=O)[C@@H]1CCCN1C(=O)[C@H](Cc1c[nH]cn1)NC(=O)[C@@H](N)Cc1ccccc1)C(=O)N1CCC[C@H]1C(=O)N[C@@H](CCC(=O)O)C(=O)N[C@@H](CCC(=O)O)C(=O)N[C@@H](Cc1ccc(O)cc1)C(=O)N[C@@H](CC(C)C)C(=O)N[C@@H](CCC(N)=O)C(=O)O` [FH22] displayed an IC50 on human α-thrombin [1] of over 0.15 µM.

Molecule `CC[C@H](C)[C@H](NC(=O)[C@H](CCC(N)=O)NC(=O)[C@@H]1CCCN1C(=O)[C@H](CCCNC(=N)N)NC(=O)[C@@H]1CCCN1C(=O)[C@H](CC(N)=O)NC(=O)[C@@H](N)Cc1ccccc1)C(=O)N[C@@H](Cc1c[nH]cn1)C(=O)N[C@@H](CC(N)=O)C(=O)N[C@@H](CC(=O)O)C(=O)NCC(=O)N[C@@H](CC(=O)O)C(=O)N[C@@H](Cc1ccccc1)C(=O)N[C@@H](CCC(=O)O)C(=O)N[C@@H](CCC(=O)O)C(=O)N[C@H](C(=O)N1CCC[C@H]1C(=O)N[C@@H](CCC(=O)O)C(=O)N[C@@H](CCC(=O)O)C(=O)N[C@@H](Cc1ccc(O)cc1)C(=O)N[C@@H](CC(C)C)C(=O)N[C@@H](CCC(N)=O)C(=O)O)[C@@H](C)CC` [FN22-I] returned an IC50 on human α-thrombin [1] of 0.045 µM. In addition, the inhibition constant Ki on human α-thrombin [2] was 360 nM. The molecule `CC[C@H](C)[C@H](NC(=O)[C@H](CCC(=O)O)NC(=O)[C@H](CCC(=O)O)NC(=O)[C@H](Cc1ccccc1)NC(=O)[C@H](CC(=O)O)NC(=O)CNC(=O)[C@H](CC(=O)O)NC(=O)[C@H](CC(N)=O)NC(=O)[C@H](Cc1c[nH]cn1)NC(=O)[C@H](CCSC)NC(=O)[C@H](CCC(N)=O)NC(=O)[C@@H]1CCCN1C(=O)[C@H](CCCNC(=N)N)NC(=O)[C@@H]1CCCN1C(=O)[C@H](CCC(N)=O)NC(=O)[C@@H](N)Cc1ccccc1)C(=O)N1CCC[C@H]1C(=O)N[C@@H](CCC(=O)O)C(=O)N[C@@H](CCC(=O)O)C(=O)N[C@@H](Cc1ccc(O)cc1)C(=O)N[C@@H](CC(C)C)C(=O)N[C@@H](CCC(N)=O)C(=O)O` [FQ22-M] registered a 50% inhibitory concentration (IC50) at human α-thrombin [1] of at least 0.01 µM.

For the molecule `CC[C@H](C)[C@H](N)C(=O)N[C@@H](CCC(N)=O)C(=O)N1CCC[C@H]1C(=O)N[C@@H](CCCNC(=N)N)C(=O)N1CCC[C@H]1C(=O)N[C@@H](CCC(N)=O)C(=O)N[C@H](C(=O)N[C@@H](Cc1c[nH]cn1)C(=O)N[C@@H](CC(N)=O)C(=O)N[C@@H](CC(=O)O)C(=O)NCC(=O)N[C@@H](CC(=O)O)C(=O)N[C@@H](Cc1ccccc1)C(=O)N[C@@H](CCC(=O)O)C(=O)N[C@@H](CCC(=O)O)C(=O)N[C@H](C(=O)N1CCC[C@H]1C(=O)N[C@@H](CCC(=O)O)C(=O)N[C@@H](CCC(=O)O)C(=O)N[C@@H](Cc1ccc(O)cc1)C(=O)N[C@@H](CC(C)C)C(=O)N[C@@H](CCC(N)=O)C(=O)O)[C@@H](C)CC)[C@@H](C)CC` [IQ22-I], the half-maximal inhibitory concentration (IC50) against human α-thrombin [1] amounted to 0.039 ± 0.003 µM. The same measure, in the same setting: then WDPRPQRHNDGDFEPIPEEYLQ [WD22-R-P^(d)], with 0.0081 ± 0.0011 µM; and WDPRPQRHNDGDYEPIPEEYLQ [WD22-R-YP^(d)], with 0.0048 ± 0.0008 µM. Same read-out and setting: next, WDPRPQSRNDGDFEPIPEEYLQ [WD22-SR-P]: 0.053 ± 0.002 µM; WDPRPQSRNDGDYEPIPEEYLQ [WD22-SR-YP]: 0.032 ± 0.003 µM.
